Where two headings read alike, the source gives them in different places.
Key:
[1] = target: T1, recombinant human AAG and albumin (Homo sapiens, UniProt P02768); assay: Plasma protein binding by RED in artificial plasma (PBS with recombinant human AAG and albumin); assay type: in vitro ADME; details: without AAG, albumin 40 mg/mL, lurbinectedin 500 ng/mL
T1 construct: purchased Sigma-Aldrich
Description: (§1) RED was considered the best alternative over other methods (e.g., ultrafiltration) to separate lurbinectedin unbound fraction (fu), due to high non-specific binding (NSB) of lurbinectedin leading to adsorption. The RED device consists of a cylinder of dialysis membrane with an 8-kDa molecular weight cut-off held in place by a polytetrafluoroethylene support; the dialysis membrane tube is closed at one end. The RED devices are disposable and used in a reusable polytetrafluoroethylene support plate (holds a maximum of 48 devices). The design of the plate and device allows for PBS to be added in such a way that it can circulate freely around the cylinder of dialysis membrane. In use, spiked plasma (400 μL) is added to the dialysis membrane cylinder part of the RED device, and PBS (600 μL) is added to the other side. The plate, device and volumes used result in a consistent fluid level across both sides of the membrane, preventing mass movement of fluid across the membrane due to hydrostatic pressure.
(§2) Each measurement was performed using three RED devices; the devices were placed in the plate and spiked plasma and PBS were added. The plate was then mixed on an incubating microplate shaker at 100 rpm and 37°C for 8 hours.
(§3) Both the plasma (diluted 1 in 20 with plasma:PBS 1:1, v:v) and PBS (diluted with plasma 1:1, v:v) were assayed in triplicate using the extraction and UPLC-MS/MS method described above. Transfer of the PBS from the incubation plate into an equivalent volume of plasma prior to assay was performed using pipette tips that had been pre-treated with Sigmacote®.
(§4) PPB of lurbinectedin was also studied in artificial plasma (PBS with recombinant human AAG and albumin) at different levels of AAG, albumin and lurbinectedin to estimate the dissociation rate constants for each of these plasma proteins. Several experimental conditions, performed in triplicate, with triplicate analyses, were explored:
(§5) • Condition 1 with lurbinectedin at 500 ng/mL, AAG at 0, 0.25, 0.75, 1, 2 and 4 mg/mL and albumin at 40 mg/mL. • Condition 2 with lurbinectedin at 500 ng/mL, AAG at 1 mg/mL and albumin at 25, 35, 40, 45 and 50 mg/mL. • Condition 3 with lurbinectedin at 50, 75, 100, 250 and 500 ng/mL, AAG at 1 mg/mL and albumin at 40 mg/mL.

[2] = as above; assay type: in vitro ADME; details: human; for fraction unbound at 8 h, 500 ng/mL: lurbinectedin 500 ng/mL
Description: as §1, §2, §3, §4, §5

[3] = test system: recombinant human AAG and albumin; assay: as above; assay type: in vitro ADME
Description: as §1, §2, §3, §4, §5

plasma protein = assay: Plasma protein binding by rapid equilibrium dialysis (RED) in K3-EDTA plasma from donors; assay type: in vitro ADME, human; details: for percent bound: 100 ng/mL, RED 8 hours 37°C
Description: as §1, §2, §3
In vitro PPB experiments to determine lurbinectedin fu were conducted with RED in K3-EDTA plasma from donors. Fresh plasma (not previously frozen), previously frozen plasma (fresh plasma subjected to four cycles of freeze [at -80°C ±10°C for ≥12 hours] then thawed [at room temperature for 2 hours]) and diluted fresh plasma (not previously frozen, diluted 1:1 with PBS prior to incubation) were spiked to 100 ng/mL with lurbinectedin and then equilibrated with PBS in RED devices for 8 hours at 37°C and assayed.
In addition, the stability of lurbinectedin PPB in fresh plasma following storage at -80°C ±10°C was evaluated; aliquots of fresh plasma samples (not previously frozen) from three donors were spiked with 500 ng/mL of lurbinectedin. The samples were stored for at least 21, 30, 62 and 91 days prior to analysis; the day 0 aliquots were not frozen before analysis. The spiked aliquots from the three donors were equilibrated with PBS in RED devices in triplicate. The samples generated in the RED devices were analyzed in triplicate.

[4] = parameters: method as in PMID 30090974; details: cited from earlier work; for reduction of total plasma clearance: 443 cancer patients
[5] = Stability in human K3-EDTA plasma under different test conditions; assay type: in vitro ADME
Method: Likewise, a wide range of long-term stability tests reflecting the sort of real-world storage issues that can occur in hospital-based clinical studies (e.g., short-term storage at -20°C before transfer to -80°C, availability of -60°C but not -80°C), was evaluated to ensure plasma samples are analyzed before degradation can occur. Therefore, the following plasma stability tests were performed: room temperature, freeze thaw (one cycle consisted of 2 hours at room temperature followed by freezing for at least 12 hours at -80°C ± 10°C) and long-term (at -20°C ± 5°C, -60°C ± 10°C and -80°C ± 10°C). For each stability test, two concentrations (LQC and HQC) and six replicates per level were analyzed. For acceptance criteria, the precision (%CV) was ≤15% and the bias when compared with the nominal concentration was ±15%. […]

[6] = Stability of stock and working solutions at -20°C; assay type: physicochemical; details: -20°C ±5°C
Method: The stability of stock and working solutions, as well the stability of IS stock solution, following storage at -20°C ±5°C were investigated by concordance verification by comparing the stored solution against a freshly prepared one.

[7] = 4 freeze-thaw cycles, nom. conc. 0.3 ng/mL
[8] = 4 freeze-thaw cycles, nom. conc. 40 ng/mL
[9] = 37°C, 8 hours, nom. conc. 0.3 ng/mL
[10] = 37°C, 8 hours, nom. conc. 40 ng/mL
[11] = -20°C ±5°C, 23 days, nom. conc. 0.3 ng/mL
[12] = -20°C ±5°C, 23 days, nom. conc. 40 ng/mL
[13] = -60°C ±10°C, 245 days, nom. conc. 0.3 ng/mL
[14] = -60°C ±10°C, 245 days, nom. conc. 40 ng/mL
[15] = -80°C ±10°C, 853 days, nom. conc. 0.3 ng/mL
[16] = -80°C ±10°C, 853 days, nom. conc. 40 ng/mL
[17] = Ambient, 16.5 hours, nom. conc. 0.3 ng/mL
[18] = Ambient, 16.5 hours, nom. conc. 40 ng/mL

T1 sequence (P02768 25-609): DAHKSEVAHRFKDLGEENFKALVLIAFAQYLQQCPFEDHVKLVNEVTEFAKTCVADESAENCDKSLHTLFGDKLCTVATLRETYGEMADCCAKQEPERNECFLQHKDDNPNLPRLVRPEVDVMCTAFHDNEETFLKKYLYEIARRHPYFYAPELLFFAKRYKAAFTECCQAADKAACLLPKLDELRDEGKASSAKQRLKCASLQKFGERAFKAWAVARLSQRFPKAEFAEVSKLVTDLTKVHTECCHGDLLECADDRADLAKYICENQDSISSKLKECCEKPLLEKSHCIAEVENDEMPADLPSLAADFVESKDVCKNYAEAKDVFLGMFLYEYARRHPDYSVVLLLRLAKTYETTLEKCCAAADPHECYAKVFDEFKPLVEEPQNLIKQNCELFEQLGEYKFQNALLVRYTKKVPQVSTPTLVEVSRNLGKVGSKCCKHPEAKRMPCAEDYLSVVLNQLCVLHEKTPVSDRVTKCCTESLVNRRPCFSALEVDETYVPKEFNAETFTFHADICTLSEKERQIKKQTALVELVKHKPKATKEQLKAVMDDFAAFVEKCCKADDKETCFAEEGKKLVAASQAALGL

COc1ccc2[nH]c3c(c2c1)CCN[C@]31CS[C@@H]2c3c(OC(C)=O)c(C)c4c(c3[C@H](COC1=O)N1[C@@H]2[C@H]2c3c(cc(C)c(OC)c3O)C[C@@H]([C@@H]1O)N2C)OCO4 [Lurbinectedin] showed a fraction unbound at 8 h, 500 ng/mL ([1]; human, read-out: mean percent unbound) of 0.0895, a percent bound [1] of 91.1% and a fraction unbound at 8 h, 500 ng/mL ([2]; AAG 0.25 mg/mL, albumin 40 mg/mL, read-out: mean percent unbound) of 0.0168. The fraction unbound at 8 h, 500 ng/mL ([2]; AAG 0.75 mg/mL, albumin 40 mg/mL, read-out: mean percent unbound) was 0.00604, the fraction unbound at 8 h, 500 ng/mL ([2]; AAG 1 mg/mL, albumin 40 mg/mL, read-out: mean percent unbound) was 0.00473 and the fraction unbound at 8 h, 500 ng/mL ([2]; AAG 2 mg/mL, albumin 40 mg/mL, read-out: mean percent unbound) was 0.00259. It also gave a fraction unbound at 8 h, 500 ng/mL ([2]; AAG 4 mg/mL, albumin 40 mg/mL, read-out: mean percent unbound) of 0.00101, a fraction unbound at 8 h, 500 ng/mL ([2]; condition 2: varying albumin 25-50 mg/mL, AAG 1 mg/mL, read-out: fu (percent unbound)) of 0.00404 and a fraction unbound at 8 h ([2]; condition 3: varying lurbinectedin 50-500 ng/mL, AAG 1 mg/mL, albumin 40 mg/mL, read-out: fu (percent unbound)) of 0.00393. The percent bound ([3]; AAG 0.25 mg/mL, albumin 40 mg/mL, lurbinectedin 500 ng/mL) was 98.3%, the percent bound ([3]; AAG 0.75 mg/mL, albumin 40 mg/mL, lurbinectedin 500 ng/mL) was 99.4% and the percent bound ([3]; AAG 1 mg/mL, albumin 40 mg/mL, lurbinectedin 500 ng/mL) was 99.5%. For the same compound, the percent bound ([3]; AAG 2 mg/mL, albumin 40 mg/mL, lurbinectedin 500 ng/mL) was 99.7%, the percent bound ([3]; AAG 4 mg/mL, albumin 40 mg/mL, lurbinectedin 500 ng/mL) was 99.9% and the percent bound ([3]; condition 2: varying albumin 25-50 mg/mL, AAG 1 mg/mL, lurbinectedin 500 ng/mL) was 99.6%. It also gave a percent bound ([3]; condition 3: varying lurbinectedin 50-500 ng/mL, AAG 1 mg/mL, albumin 40 mg/mL) of 99.6%, a percent bound (plasma protein; diluted fresh plasma (1:1 with PBS)) of 99.3% and a percent bound (plasma protein; fresh plasma (not previously frozen)) of 99.6%. For the same compound, the fraction unbound at 8 h, 500 ng/mL (plasma protein; human, K3-EDTA plasma (fresh, from three donors), following storage at -80°C ±10°C for ≥91 days, read-out: PPB) was < 0.01, the percent bound (plasma protein; previously frozen plasma (four freeze-thaw cycles)) was 99.6% and the “stability of PPB in fresh plasma following storage” value (plasma protein; storage at -80°C ±10°C, three donors) was ≥ 91 days. For the same compound, the hepatic extraction ratio [4] was 0.19, the “reduction of total plasma clearance” value ([4]; high alpha-1-acid glycoprotein (AAG)) was 28% and the “reduction of total plasma clearance” value ([4]; low albumin) was 20%. The Bias [5, 7] was -4%, the Measured conc. [5, 7] was 0.289 ng/mL and the Bias [5, 8] was -5%. For the same compound, the Measured conc. [5, 8] was 38.0 ng/mL, the Bias [5, 9] was -2% and the Measured conc. [5, 9] was 0.293 ng/mL. For the same compound, the Bias [5, 10] was 1%, the Measured conc. [5, 10] was 40.2 ng/mL and the Bias [5, 11] was -10%. It also gave a Measured conc. [5, 11] of 0.271 ng/mL, a Bias [5, 12] of -9% and a Measured conc. [5, 12] of 36.2 ng/mL. For the same compound, the Bias [5, 13] was -5%, the Measured conc. [5, 13] was 0.285 ng/mL and the Bias [5, 14] was -10%. It also gave a Measured conc. [5, 14] of 36.1 ng/mL, a Bias [5, 15] of -10% and a Measured conc. [5, 15] of 0.269 ng/mL. For the same compound, the Bias [5, 16] was -9%, the Measured conc. [5, 16] was 36.3 ng/mL and the Bias [5, 17] was -8%. The Measured conc. [5, 17] was 0.276 ng/mL, the Bias [5, 18] was 3% and the Measured conc. [5, 18] was 41.0 ng/mL. The “stability of working solution following storage for 7 days” value ([6]; 5 ng/mL in DMSO:ammonium acetate 10 mM ~pH 3 (1:1, v:v)) was “not demonstrated” and the “stability of stock solution in DMSO” value ([6]; 1 mg/mL in DMSO) was ≥ 32 days.
